Source: patent publication US8697731B2, “Derivatives of 2-pyridin-2-yl-pyrazol-3(2H)-one, preparation and therapeutic use thereof” (Sanofi, priority 2008, dated 2014)
Counter-ions that a name gives are not always drawn.

How the values were obtained:
HIF1-alpha = assay: Measurement of the stabilization of HIF1-alpha in HEKEA cells (beta-galactosidase complementation); type: cell-based, human; details: HEKEA_HIF1-alphaPLBL cells, 6 hours under normoxia, luminescence; molar concentration that produces 50% of the maximum response of this same compound
From the text: Furthermore, a subject of the invention is also a uniform test for the direct measurement by beta-galactosidase complementation of the amount of HIF1-alpha protein in the nucleus of cells, preferably HEK cells, after treating the said cells with one or more test compounds, which consists in: • (a) inoculating, preferably in 384-well plates, the said cells in a suitable culture medium, preferably 1% foetal calf serum (abbreviated as FCS); • (b) adding the test compound(s) at a suitable concentration in a suitable solvent to the cells previously inoculated in the said culture medium; preferably the test compounds are diluted in 0.1% FCS; • (c) incubating the said cells thus prepared in an indicator at about 37° C., advantageously for about 6 hours; • (d) lysing the cells with a lysis buffer containing a chemiluminescent substrate for beta-galactosidase; • (e) incubating in the absence of light, before reading and measuring the luminescence, which is a function of the beta-galactosidase activity.
The test is a cell test based on the principle of enzyme complementation, the enzyme used herein being beta-galactosidase. HEKEA cells are HEK cells stably expressing, and restricted in their nucleus, mutant beta-galactosidase (omega fragment, also known as EA) (line sold by DiscoverX). This construct makes it possible to obtain beta-galactosidase activity only when the protein comprising the Prolabel complementation fragment has migrated into the nucleus.
The protein of interest comprising the Prolabel fragment is in this case an HIF1-alpha or HIF1-alpha mutated at the two prolines 402 and 564 replaced with alanines, is C-terminal fused via molecular biology (DiscoverX vector sold by Clontech) with the small complementation peptide fragment (Prolabel or ED, about 4 kDa). The vector coding for the chimeric protein HIF1-alpha_Prolabel is then transfected into HEKEA cells to obtain stable clones (HEKEA_HIF1-alphaPLBL).
The amount of C-terminal Prolabel-“labelled” HIF1-alpha protein obtained after treating the cells to hypoxia or compounds that are potentially HIF activators is measured by adding to the cells a lysis buffer containing a chemiluminescent substrate for beta-galactosidase.
The measurement of the beta-galactosidase activity will be proportional to the amount of Prolabel and thus of HIF1-alpha that has migrated into the nucleus of the cells.
1.3.1 Experiment Plan • 1) Inoculation of the cells on D0 • 2) Adherence for 24 hours under normoxia • 3) Preparation and addition of the products (Biomek 2000 and FX) on D+1 • 4) Incubation under normoxia for 6 hours • 5) Reading of the plates (by luminescence)
The cells are inoculated with Multidrop in white, opaque-bottomed 384-well plates (Greiner ref 3704), in 30 μl of culture medium (1% FCS) a 10000 cells/well (cell plate).
The test products are prepared at 3×10^−2 M in 100% DMSO and then diluted to 3×10^−4 M in medium containing 0.1% FCS (10 μl in 990 μl of MEM). They are then deposited by hand into column 12 of a round-bottomed 96-well plate (200 μl of each compound) known as the dilution plate (dl). The complete DL plate of 3×10^−4 M to 10^−9 M is then prepared with Biomek 2000 (programme: range of 10 points in series). For the references and controls, 100 μl of DMEM containing 0.1% FCS are added to column 1, 100 μl of Deferoxamine 10^−3M to column 2, wells A B C D and 100 μl of Deferoxamine 5×10^−3 M to column 2, wells E F G H.
3.3 μL are taken from the DL plate by pipetting with a Biomek FX 96 and placed in horizontal duplicate (columns 1 to 24) in each 384-well cell plate (HEKEA_HIF1-alphaPLBL cell plate).
The cells are then placed for 6 hours in an incubator at 37° C. (ambient O2, 6% CO2).
The kit used is the Prolabel chemiluminescent kit (Ref 93-0001 DiscoverX). […]

| SMILES | melting point [°C] | EC50 (HIF1-alpha) [µM] |
| --- | --- | --- |
| COc1ccc(-n2nc3c(c2[O-])CSC3)nc1.[Na+] [Compound 34, sodium 2-(5-methoxypyridin-2-yl)-2,6-dihydro-4H-thieno[3,4-c]pyrazol-3-olate] | > 220 | 10 |
| O=c1c2c([nH]n1-c1ccccn1)CCSC2 [Compound 12, 2-(pyridin-2-yl)-1,4,6,7-tetrahydrothiopyrano[4,3-c]pyrazol-3(2H)-one] | 175 | – |
| CC(C)c1ccnc(-n2[nH]c3c(c2=O)CSC3)c1 [Compound 65, 2-[4-(propan-2-yl)pyridin-2-yl]-1,2,4,6-tetrahydro-3H-thieno[3,4-c]pyrazol-3-one] | 92 | – |
| CN(C(C)(C)C)S(=O)(=O)c1ccc(-n2nc3c(c2O)CSC3)nc1 (as salt: Na) [Compound 36, sodium 2-{5-[tert-butyl(methyl)sulfamoyl]pyridin-2-yl}-2,6-dihydro-4H-thieno[3,4-c]pyrazol-3-olate] | 130 | – |
| O=c1c2c([nH]n1-c1ccc(S(=O)(=O)N(CC(O)CO)C3CCCC3)cn1)CSC2 (stereo not shown) [Compound 53, N-cyclopentyl-N-(2,3-dihydroxypropyl)-6-(3-oxo-4,6-dihydro-1H-thieno[3,4-c]pyrazol-2(3H)-yl)pyridine-3-sulfonamide] | 190 | – |
| CCN(C(C)(C)C)S(=O)(=O)c1ccc(-n2nc3c(c2O)CSC3)nc1 (as salt: Na) [Compound 32, sodium 2-{5-[tert-butyl(ethyl)sulfamoyl]pyridin-2-yl}-2,6-dihydro-4H-thieno[3,4-c]pyrazol-3-olate] | > 260 | – |
| Cc1ccc(-n2nc3c(c2[O-])CSC3)nc1.[Na+] [Compound 31, sodium 2-(5-methylpyridin-2-yl)-2,6-dihydro-4H-thieno[3,4-c]pyrazol-3-olate] | > 220 | – |
| CC(C)(C)COC(=O)c1ccc(-n2[nH]c3c(c2=O)CN(S(C)(=O)=O)CC3)nc1 [Compound 54, 2,2-dimethylpropyl 6-[5-(methylsulfonyl)-3-oxo-1,3,4,5,6,7-hexahydro-2H-pyrazolo[4,3-c]pyridin-2-yl]pyridine-3-carboxylate] | 230 | – |
| CCc1ccnc(-n2[nH]c3c(c2=O)CSC3)c1 (as salt: Na) [Compound 61, sodium 2-(4-ethylpyridin-2-yl)-2,6-dihydro-4H-thieno[3,4-c]pyrazol-3-olate] | > 260 | – |
| O=c1c2c([nH]n1-c1ccc(S(=O)(=O)Nc3ccccn3)cn1)CSC2 [Compound 23, 6-(3-oxo-4,6-dihydro-1H-thieno[3,4-c]pyrazol-2(3H)-yl)-N-(pyridin-2-yl)pyridine-3-sulfonamide] | > 260 | 12 |
| CCN(c1ccccc1)S(=O)(=O)c1ccc(-n2nc3c(c2O)N(Cc2ccccc2)C(=O)CC3)nc1 (as salt: Na) [Compound 35, sodium 4-benzyl-2-{5-[ethyl(phenyl)sulfamoyl]pyridin-2-yl}-5-oxo-4,5,6,7-tetrahydro-2H-pyrazolo[4,3-b]pyridin-3-olate] | > 250 | – |
| CCN(CC)S(=O)(=O)c1ccc(-n2[nH]c3c(c2=O)CSC3)nc1 [Compound 38, N,N-diethyl-6-(3-oxo-4,6-dihydro-1H-thieno[3,4-c]pyrazol-2(3H)-yl)pyridine-3-sulfonamide] | 192 | 3.8 |
| O=c1c2c([nH]n1-c1ccccn1)CCC2 [Compound 7, 2-(pyridin-2-yl)-1,4,5,6-tetrahydrocyclopenta[c]pyrazol-3(2H)-one] | 156 | 6 |
| Cc1ccnc(-n2nc3c(c2[O-])CSC3)c1.[Na+] [Compound 62, sodium 2-(4-methylpyridin-2-yl)-2,6-dihydro-4H-thieno[3,4-c]pyrazol-3-olate] | > 250 | 3.9 |
| CN(Cc1ccccn1)S(=O)(=O)c1ccc(-n2[nH]c3c(c2=O)CSC3)nc1 (as salt: HCl) [Compound 27, N-methyl-6-(3-oxo-4,6-dihydro-1H-thieno[3,4-c]pyrazol-2(3H)-yl)-N-(pyridin-2-ylmethyl)pyridine-3-sulfonamide] | 198 | – |
| Oc1c2c(nn1-c1cc(OCc3cccnc3)ccn1)CSC2 (as salt: Na) [Compound 64, sodium 2-[4-(pyridin-3-ylmethoxy)pyridin-2-yl]-2,6-dihydro-4H-thieno[3,4-c]pyrazol-3-olate] | > 260 | – |
| CC(C)(C)NC(=O)c1ccc(-n2nc3c(c2O)CSC3)nc1 [Compound 33, sodium 2-[5-(tert-butylcarbamoyl)pyridin-2-yl]-2,6-dihydro-4H-thieno[3,4-c]pyrazol-3-olate] | – | 9.4 |
| CN(C)c1ccnc(-n2[nH]c3c(c2=O)CSC3)c1 [Compound 60, 2-[4-(dimethylamino)pyridin-2-yl]-1,2,4,6-tetrahydro-3H-thieno[3,4-c]pyrazol-3-one hydrochloride] | – | 21 |
| CN(Cc1ccccn1)S(=O)(=O)c1ccc(-n2[nH]c3c(c2=O)CSC3)nc1 [Compound 27, N-methyl-6-(3-oxo-4,6-dihydro-1H-thieno[3,4-c]pyrazol-2(3H)-yl)-N-(pyridin-2-ylmethyl)pyridine-3-sulfonamide] | – | 9.5 |
| COC1CCc2c1[nH]n(-c1ccccn1)c2=O (stereo not shown) [Compound 11, 6-methoxy-2-(pyridin-2-yl)-1,4,5,6-tetrahydrocyclopenta[c]pyrazol-3(2H)-one] | 76 | – |
| CCN(c1ccccc1)S(=O)(=O)c1ccc(-n2[nH]c3c(c2=O)CCCCCC3)nc1 [Compound 37, N-ethyl-6-(3-oxo-1,3,4,5,6,7,8,9-octahydro-2H-cycloocta[c]pyrazol-2-yl)-N-phenylpyridine-3-sulfonamide] | 200 | 2.2 |
| CN(C)c1ccnc(-n2[nH]c3c(c2=O)CSC3)c1 (as salt: HCl) [Compound 60, 2-[4-(dimethylamino)pyridin-2-yl]-1,2,4,6-tetrahydro-3H-thieno[3,4-c]pyrazol-3-one hydrochloride] | 182 | – |
